Reference: patent publication US8324390B2, “Tetrazole-substituted anthranilamides as pesticides” (Bayer CropScience AG, priority 2008, dated 2012)
Where two headings read alike, the source gives them in different places.

Key:
[1] = log P determination by HPLC (EEC Directive 79/831 Annex V.A8); assay type: physicochemical
Method: The measurements were carried out using an Agilent 1100 LC system with a 50*4.6 Zorbax Eclipse C18 1.8 μm column (oven temperature 55° C., flow rate 2.0 ml/min).
The following mobile phases were used:
Mobile phase A: acetonitrile+1000 μl of formic acid/l
Mobile phase B: Millipore water+900 μl of formic acid/l

[2] = test system: caterpillars of the armyworm (Spodoptera frugiperda); assay: Spodoptera frugiperda test (SPODFR spray treatment); assay type: in vivo; conditions: Spodoptera frugiperda, foliar, read-out: effect in % (caterpillars killed)
Description: Solvent: 78.0 parts by weight of acetone

[3] = test system: larvae of the mustard beetle (Phaedon cochleariae); assay: Phaedon test (PHAECO spray treatment); conditions: for pest or weed control at 100 g/ha: Phaedon cochleariae, in Brassica rapa, foliar, read-out: effect in % (beetle larvae killed)
[4] = reversed-phase HPLC, Zorbax Eclipse C18 column, by HPLC according to EEC Directive 79/831 Annex V.A8, read-out: log P
[5] = application rate 100 g/ha, maize leaf discs

| chromatographic logP [1, 4] | chromatographic logP ([1]; reversed-phase HPLC, Zorbax Eclipse C18 column, determined by HPLC according to EEC Directive 79/831 Annex V.A8, read-out: log P) | SMILES | chromatographic logP ([1]; log P) | pest or weed control at 100 g/ha ([2]; in Zea mays) [%] | pest or weed control at 100 g/ha [3] [%] | pest or weed control at 100 g/ha [2, 5] [%] | chromatographic logP ([1]; by HPLC according to EEC Directive 79/831 Annex V.A8, read-out: log P) | Kill in %/7 days ([3]; 4 g/ha, 7 days) [%] |
| --- | --- | --- | --- | --- | --- | --- | --- | --- |
|  |  | CSC[C@H](C)NC(=O)c1cc(C#N)cc(C)c1NC(=O)c1cc(Cn2nnc(C(F)(F)F)n2)nn1-c1ncccc1Cl [Example 14] | 3.28 | ≥ 80 | ≥ 80 |  |  |  |
| 3.29 |  | Cc1cc(C#N)cc(C(=O)NCC#N)c1NC(=O)c1cc(Cn2nnc(C(F)(C(F)(F)F)C(F)(F)F)n2)nn1-c1ncccc1Cl [Example 374] |  |  | ≥ 80 | ≥ 80 |  |  |
|  |  | Cc1cc(Cl)cc(C(=O)NC2CCC2)c1NC(=O)c1cc(Cn2nnc(C(F)(F)F)n2)nn1-c1ncccc1Cl [Example 49] | 3.6 | ≥ 80 | ≥ 80 |  |  |  |
|  |  | Cc1cc(C#N)cc(C(=O)NC2CCCCC2)c1NC(=O)c1cc(Cn2nnc(C(F)(F)F)n2)nn1-c1ncccc1Cl [Example 400] | 3.63 | ≥ 80 | ≥ 80 |  |  |  |
|  |  | Cc1cc(C#N)cc(C(=O)NC(C)C2CCC2)c1NC(=O)c1cc(Cn2nnnc2C(F)(F)F)nn1-c1ncccc1Cl (centres unmarked) [Example 194] | 3.25 |  | ≥ 80 |  |  |  |
| 3.28 |  | CNC(=O)c1cc(Br)cc(C)c1NC(=O)c1cc(Cn2nnc(C(F)(F)F)n2)nn1-c1ncccc1C(F)(F)F [Example 228] |  |  | ≥ 80 | ≥ 80 |  |  |
|  | 3.2 | Cc1cc(C#N)cc(C(=O)NCC(F)(F)F)c1NC(=O)c1cc(Cn2nnnc2C(F)(F)F)nn1-c1ccccc1Cl [Example 538] |  |  | ≥ 80 | ≥ 80 |  |  |
|  |  | Cc1cc(Cl)cc(C(=O)NCC#N)c1NC(=O)c1cc(Cn2nnc(C(F)F)n2)nn1-c1ncccc1Cl [Example 261] | 2.5 | ≥ 80 | ≥ 80 |  |  |  |
|  |  | Cc1cc(Cl)cc(C(N)=O)c1NC(=O)c1cc(Cn2nnc(C(F)(F)C(F)(F)F)n2)nn1-c1ncccc1Cl [Example 130] | 3.15 | ≥ 80 | ≥ 80 |  |  |  |
|  |  | CCNC(=O)c1cc(Cl)cc(C)c1NC(=O)c1cc(Cn2nnc(C(F)F)n2)nn1-c1ncccc1Cl [Example 257] | 2.69 | ≥ 80 | ≥ 80 |  |  |  |
| 4.3 |  | CSC[C@H](C)NC(=O)c1cc(Cl)cc(Cl)c1NC(=O)c1cc(Cn2nnc(C(F)(C(F)(F)F)C(F)(F)F)n2)nn1-c1ncccc1Cl [Example 394] |  |  | ≥ 80 | ≥ 80 |  |  |
|  |  | Cc1cc(Cl)cc(C(=O)NC(C)C)c1NC(=O)c1cc(Cn2nnc(C(F)F)n2)nn1-c1ncccc1Cl [Example 231] | 2.95 | ≥ 80 | ≥ 80 |  |  |  |
|  |  | Cc1cc(Cl)cc(C(=O)NC2CC2)c1NC(=O)c1cc(Cn2nnc(C(F)F)n2)nn1-c1ncccc1Cl [Example 230] | 2.72 | ≥ 80 | ≥ 80 |  |  |  |
|  |  | Cc1cc(Cl)cc(C(=O)NC(C)(C)C)c1NC(=O)c1cc(Cn2nnc(C(F)F)n2)nn1-c1ncccc1Cl [Example 258] | 3.32 | ≥ 80 | ≥ 80 |  |  |  |
|  |  | Cc1cc(I)cc(C(=O)NC(C)C2CC2)c1NC(=O)c1cc(Cn2nnc(C(F)(F)C(F)(F)F)n2)nn1-c1ncccc1Cl (centres unmarked) [Example 141] | 4.42 | ≥ 80 | ≥ 80 |  |  |  |
|  |  | CSC[C@H](C)NC(=O)c1cc(Cl)cc(C)c1NC(=O)c1cc(Cn2nnc(C(F)(F)C(F)(F)F)n2)nn1-c1ncccc1Cl [Example 212] | 4.09 | ≥ 80 | ≥ 80 |  |  |  |
|  |  | Cc1cc(F)cc(C(=O)NC(C)C)c1NC(=O)c1cc(Cn2nnc(C(F)(F)C(F)(F)F)n2)nn1-c1ncccc1Cl [Example 149] | 3.59 | ≥ 80 | ≥ 80 |  |  |  |
|  |  | Cc1cc(Cl)cc(C(=O)NC(C)(C)C)c1NC(=O)c1cc(Cn2nnnc2C(F)(F)F)nn1-c1ncccc1Cl [Example 197] | 3.47 | ≥ 80 | ≥ 80 |  |  |  |
| 3.92 |  | Cc1cc(C#N)cc(C(=O)NC(C)(C)C)c1NC(=O)c1cc(Cn2nnc(C(F)(F)F)n2)nn1-c1ccccc1Cl [Example 343] |  |  | ≥ 80 | ≥ 80 |  |  |
|  |  | Cc1cc(Cl)cc(C(=O)NCC2CC2)c1NC(=O)c1cc(Cn2nnc(C(F)(F)F)n2)nn1-c1ncccc1Cl [Example 46] | 3.53 | ≥ 80 | ≥ 80 |  |  |  |

| chromatographic logP [1, 4] | chromatographic logP ([1]; reversed-phase HPLC, Zorbax Eclipse C18 column, determined by HPLC according to EEC Directive 79/831 Annex V.A8, read-out: log P) | SMILES | chromatographic logP ([1]; log P) | pest or weed control at 100 g/ha ([2]; in Zea mays) [%] | pest or weed control at 100 g/ha [3] [%] | pest or weed control at 100 g/ha [2, 5] [%] | chromatographic logP ([1]; by HPLC according to EEC Directive 79/831 Annex V.A8, read-out: log P) | Kill in %/7 days ([3]; 4 g/ha, 7 days) [%] |
| --- | --- | --- | --- | --- | --- | --- | --- | --- |
|  |  | CNC(=O)c1cc(Cl)cc(C)c1NC(=O)c1cc(Cn2nnc(C(F)(C(F)(F)F)C(F)(F)F)n2)nn1-c1ncccc1Cl [Example 357] | 3.72 | ≥ 80 | ≥ 80 |  |  |  |
| 3.45 |  | Cc1cc(I)cc(C(=O)NC2CC2)c1NC(=O)c1cc(Cn2nnc(C(F)(F)F)n2)nn1-c1ncccc1Br [Example 350] |  |  | ≥ 80 | ≥ 80 |  |  |
|  |  | CCNC(=O)c1cc(Cl)cc(Cl)c1NC(=O)c1cc(Cn2nnc(C(F)(F)C(F)(F)F)n2)nn1-c1ncccc1Cl [Example 152] | 3.57 | ≥ 80 | ≥ 80 |  |  |  |
| 3.74 |  | CCC(COC(F)(F)F)NC(=O)c1cc(C#N)cc(C)c1NC(=O)c1cc(Cn2nnc(C(F)(F)F)n2)nn1-c1ncccc1Cl (centres unmarked) [Example 117] |  |  | ≥ 80 | ≥ 80 |  |  |
|  |  | CCNC(=O)c1cc(Cl)cc(C)c1NC(=O)c1cc(Cn2nnc(C(F)(F)F)n2)nn1-c1ncccc1Cl [Example 33] | 3.23 | ≥ 80 | ≥ 80 |  |  |  |
| 4.09 |  | Cc1cc(I)cc(C(=O)NC(C)(C)C)c1NC(=O)c1cc(Cn2nnc(C(F)(F)F)n2)nn1-c1ncccc1Br [Example 352] |  |  | ≥ 80 | ≥ 80 |  |  |
|  |  | Cc1cc(I)cc(C(=O)NC2CCC2)c1NC(=O)c1cc(Cn2nnc(C(F)(F)F)n2)nn1-c1ncccc1Cl [Example 72] | 3.85 |  | ≥ 80 |  |  |  |
| 4.51 |  | Cc1cc(I)cc(C(=O)NCC2CC2)c1NC(=O)c1cc(Cn2nnc(C(F)(C(F)(F)F)C(F)(F)F)n2)nn1-c1ncccc1Cl [Example 383] |  |  | ≥ 80 | ≥ 80 |  |  |
|  |  | Cc1cc(Cl)cc(C(=O)NCC#N)c1NC(=O)c1cc(Cn2nnc(C(F)(C(F)(F)F)C(F)(F)F)n2)nn1-c1ncccc1Cl [Example 358] | 3.62 | ≥ 80 | ≥ 80 |  |  |  |
|  |  | Cc1cc(I)cc(C(=O)NC(C)C)c1NC(=O)c1cc(Cn2nnc(C(F)(F)F)n2)nn1-c1ncccc1Cl [Example 71] | 3.73 | ≥ 80 | ≥ 80 |  |  |  |
|  |  | Cc1cc(Cl)cc(C(=O)NCC2CC2)c1NC(=O)c1cc(Cn2nnc(C(F)(F)C(F)(F)F)n2)nn1-c1ncccc1Cl [Example 131] | 3.93 | ≥ 80 | ≥ 80 |  |  |  |
| 4.17 |  | O=C(NCC1CC1)c1cc(Cl)cc(Cl)c1NC(=O)c1cc(Cn2nnc(C(F)(C(F)(F)F)C(F)(F)F)n2)nn1-c1ncccc1Cl [Example 392] |  |  | ≥ 80 | ≥ 80 |  |  |
| 3.6 |  | CCOC1CCC(NC(=O)c2cc(C#N)cc(C)c2NC(=O)c2cc(Cn3nnc(C(F)(F)F)n3)nn2-c2ncccc2Cl)CC1 (centres unmarked) [Example 344] |  |  | ≥ 80 |  |  |  |
|  |  | CC(NC(=O)c1cc(Cl)cc(Cl)c1NC(=O)c1cc(Cn2nnc(C(F)(F)C(F)(F)F)n2)nn1-c1ncccc1Cl)C1CC1 (centres unmarked) [Example 150] | 4.12 | ≥ 80 | ≥ 80 |  |  |  |
|  |  | Cc1cc(I)cc(C(=O)NC(C)C)c1NC(=O)c1cc(Cn2nnc(C(F)(F)C(F)(F)C(F)(F)F)n2)nn1-c1ncccc1Cl [Example 109] |  | ≥ 80 | ≥ 80 |  | 4.48 |  |
|  |  | Cc1cc(I)cc(C(=O)NCC#N)c1NC(=O)c1cc(Cn2nnc(C(F)(C(F)(F)F)C(F)(F)F)n2)nn1-c1ncccc1Cl [Example 384] | 3.82 | ≥ 80 | ≥ 80 |  |  |  |
|  |  | CNC(=O)c1cc(Cl)cc(C)c1NC(=O)c1cc(Cn2nnnc2-c2ccc(C(F)(F)F)cc2)nn1-c1ncccc1Cl [drawing 598] |  |  |  |  |  | 0 |
|  |  | Cc1cc(C#N)cc(C(=O)NCC2CCCCC2)c1NC(=O)c1cc(Cn2nnc(C(F)(F)F)n2)nn1-c1ncccc1Cl [Example 93] | 3.96 |  | ≥ 80 |  |  |  |
|  |  | Cc1cc(C#N)cc(C(=O)NC(C)CC(F)(F)F)c1NC(=O)c1cc(Cn2nnc(C(F)(F)F)n2)nn1-c1ncccc1Cl (centres unmarked) [Example 75] | 3.38 |  | ≥ 80 |  |  |  |

| SMILES | chromatographic logP [1, 4] | chromatographic logP ([1]; reversed-phase HPLC, Zorbax Eclipse C18 column, determined by HPLC according to EEC Directive 79/831 Annex V.A8, read-out: log P) | chromatographic logP ([1]; log P) | pest or weed control at 100 g/ha ([2]; in Zea mays) [%] | pest or weed control at 100 g/ha [3] [%] | pest or weed control at 100 g/ha [2, 5] [%] | chromatographic logP ([1]; by HPLC according to EEC Directive 79/831 Annex V.A8, read-out: log P) | Kill in %/7 days ([3]; 4 g/ha, 7 days) [%] |
| --- | --- | --- | --- | --- | --- | --- | --- | --- |
| CNC(=O)c1cc(C#N)cc(C)c1NC(=O)c1cc(Cn2nnc(C(F)(F)F)n2)nn1-c1ncccc1Cl [Example 12] | 2.66 |  |  | ≥ 80 | ≥ 80 |  |  |  |
